Earlier results in patent publication US8618345B2 (priority 2006, dated 2013).

How the values were obtained:
[1] = in vivo
[2] = ratio to inorganic arsenic (arsenic trioxide)

arsenic trioxide [inorganic arsenic, reference compound]
half life of a substance in the body (BHT) [1]: 28 h

C[As+](C)(C)CC(=O)[O-] [arsenobetaine]
toxicity compared with that of inorganic arsenic (arsenic trioxide) [2]: approximately 1/300
demethylation if accumulated in the body [1]: no demethylation
half life of a substance in the body (BHT) [1]: 3.5 h
